The results in this text go back to patent US20230129723A1, “EN[…] OF 3,4-METHYLENEDIOXYMETHAMPHETAMINE AND RELATED METABOLITES AND USES THEREOF” (ATAI Life Sciences AG, priority 2021, published 2023).

Each structure is given as a SMILES string.

Experiment [1] has as its system rat embryonic cortical neuron cultures. Description: Neurite outgrowth in primary rat embryonic cortical neuron cultures, single test articles (Example 1). Type of experiment: cell-based. The note with it: 3 days treatment, compared to 0.1% sterile water vehicle control. From the text: Primary rat cortical neuron experimental methods: Female Wistar rats of 17 days gestation were killed by cervical dislocation and the fetuses (typically 6 to 8 in number) were removed from the uterus. Fetal brains were placed in ice-cold medium of Leibovitz (L15, Gibco, France). Cortex was dissected and meninges were carefully removed. The cortical neurons were dissociated by trypsinization (trypsin-EDTA, Gibco) in the presence of DNAse I (Roche, France). The reaction was stopped by addition of Dulbecco's Modified Eagle Medium (DMEM; Gibco) with 10% of fetal bovine serum (FBS; Gibco). The suspension was triturated with a 10-ml pipette and a 21-gauge needle syringe and centrifuged. The pellet of dissociated cells was resuspended in a medium consisting of Neurobasal (Gibco) supplemented with 2% B27 supplement (Gibco), 0.5 mM L-Glutamine (Gibco), and an antibiotic-antimycotic mixture. Viable cells were counted in a Neubauer cytometer and cells were seeded in 96-well plates (Costar) precoated with poly-L-lysine at 10,000 cells/well.
Stock solutions were prepared in sterile water at 10 mM, and stored at −20° C. until use. Further dilution will be performed in culture in the medium on the day of the treatment. 0.1% Sterile water will be present in all tested conditions. The following conditions were tested: 1) Racemic MDMA (10000, 1000, 100, 10, 1, 0.1, 0.01, 0.001 nM), 2) S(+)-MDMA (10000, 1000, 100, 10, 1, 0.1, 0.01, 0.001 nM), 3) R(−)-MDMA (10000, 1000, 100, 10, 1, 0.1, 0.01, 0.001 nM), 4) Racemic MDA (10000, 1000, 100, 10, 1, 0.1, 0.01, 0.001 nM), 5) S(+)-MDA (10000, 1000, 100, 10, 1, 0.1, 0.01, 0.001 nM), and 6) R(−)-MDA (10000, 1000, 100, 10, 1, 0.1, 0.01, 0.001 nM).
The experimental protocol was performed in 2 independent cultures (i.e., from 2 different pregnant rats). For each culture, each condition was tested in sextuplet (6 wells per condition per culture for a total of 12 wells per condition). […] After three days of plating and compound treatment (Day3), cultures were fixed with paraformaldehyde in phosphate buffered saline at 4° C. (PBS, 4%, Sigma). Then, all subsequent steps were performed at room temperature.
Cells were successively permeabilized for 30 minutes using 0.1% triton, saturated with PBS containing 3% bovine serum albumin (BSA) and incubated for 1 hour with anti-beta III tubulin antibody (T5168, Sigma). Cells were first washed 3 times and then were incubated for 1 hour with goat anti-mouse secondary antibody coupled with Alexa Fluor 488 (AF488, Invitrogen A11001). Finally, nuclei were stained with 4′-6-diamidino-2-phenylindole (DAPI). After rinsing the cells with PBS, the plate was imaged and neurite networks were examined and analyzed using a High-Content Screening platform (CellInsight CX5, Thermo Scientific) with integrated Photometrics high-resolution fluorescent camera, Olympus objective (10×) and HCS Studio Cell Analysis Software.
Approximately 2,000 neurons per well were analyzed using a validated cortex neuron outgrowth algorithm that utilizes parameters optimized for analysis of embryonic rat cortical neuron cultures. The HCS Studio Cell Analysis Software output will include values for neurite number total count, neurite total length (μm) and total number of branch points for each of the 6 wells per culture. The evaluation of neurite outgrowth was performed using the average number of neurites per neuron, the average total neurite length per neuron (μm) and the average number of branch points per neuron across 12 wells. Data also were transformed to percent (%) of the average vehicle control value. Results were expressed as mean (±s.e.m.) of the transformed (% of vehicle control) data. Statistical analyses were performed on transformed percent of the average vehicle control data for each measure for each test article using one-way analysis of variance (Anova, StatView or GraphPad Prism). Where applicable, Dunnett's test was used for multiple pairwise comparisons to the negative control (vehicle) condition. […]

The test system is the same in experiment [2]. The experiment in a line: Neurite outgrowth in primary rat embryonic cortical neuron cultures, racemic and non-racemic R(−)/S(+)-MDMA mixtures (Example 2). Format: cell-based. The conditions noted are these: concentrations of R(−)- and S(+)-MDMA as in the label (alone: 10 uM), 3 days treatment, compared to vehicle control, Anova/Dunnett p<0.05.
Source text: Primary rat cortical neuron experimental methods: Female Wistar rats of 17 days gestation are killed by cervical dislocation and the fetuses (typically 6 to 8 in number) are removed from the uterus. Their brains are placed in ice-cold medium of Leibovitz (L15, Gibco, France). Cortex is dissected and meninges are carefully removed. The cortical neurons are dissociated by trypsinization (trypsin-EDTA, Gibco) in presence of DNAse I (Roche, France). The reaction is stopped by addition of Dulbecco's Modified Eagle Medium (DMEM; Gibco) with 10% of fetal bovine serum (FBS; Gibco). The suspension is triturated with a 10-ml pipette and using a needle syringe 21G and centrifuged. The pellet of dissociated cells is resuspended in a medium consisting of Neurobasal (Gibco) supplemented with 2% B27 supplement (Gibco), 0.5 mM L-Glutamine (Gibco), an antibiotic-antimycotic mixture. Viable cells are counted in a Neubauer cytometer and cells are seeded in 96-well plate (Costar) precoated with poly-L-lysine at 10 000cells/well.
The protocol is performed in either 1 or 2 independent cultures (i.e., from 1 or 2 different pregnant rats). For each culture, each condition is performed in sextuplet (6 wells per condition per culture from 1 rat, or a total of 12 wells per condition when 2 rats/cultures are used).
Cells are treated with the test compounds R(−)-MDMA and S(+)-MDMA as described in the following Tables below.
After three days of plating and test compound treatment (Day3), cultures are fixed with paraformaldehyde in phosphate buffered saline at 4° C. (PBS, 4%, Sigma). Then all steps will be performed at room temperature. Cells are successively permeabilized 30 min using 0.1% triton, saturated with PBS containing 3% bovine serum albumin (BSA) and incubated 1 h with anti-beta III tubulin antibody (T5168, Sigma). Cells are first washed 3 times and are then incubated 1 h with goat anti-mouse secondary antibody coupled with Alexa Fluor 488 (AF488, Invitrogen A11001). Finally, nuclei are stained with 4′-6-diamidino-2-phenylindole (DAPI). After rinsing the cells with PBS, the plate is filmed and neurite networks are examined and analyzed using a High-Content Screening platform (CellInsight CX5, Thermo Scientific) with integrated Photometrics high-resolution fluorescent camera, Olympus objective (10×) and HCS Studio Cell Analysis Software.
Approximately 2000 neurons per well were analyzed using a validated Cortex Neuron Outgrowth algorithm established by Neurofit that utilizes parameters optimized for analysis of embryonic rat cortical neuron cultures. The HCS Studio Cell Analysis Software output will include values for neurite total count number, neurite total length (μm) and total number of branch points for each of the 6 wells per culture. The evaluation of neurite outgrowth was performed using the average number of neurites per neuron, the average of total neurite length per neuron (μm) and the average number of branchpoint per neuron across 6 wells of each culture (6 wells total (1 rat used) or 12 wells total (2 rats used). Data were transformed to % of the average vehicle control value.
Where [3] appears, read: at any tested concentration (0.001-10000 nM).

Turning to `CC(N)Cc1ccc2c(c1)OCO2` (racemic) [racemic R,S(+/−)-MDA, 3,4-methylenedioxyamphetamine, reference compound], in experiment [1] (setting [3]), the neurite number result is “did not significantly alter”, the “neurite total length (μm)” value is reported as “did not significantly alter” and the “total number of branch points” value was “did not significantly alter”.

On to `C[C@H](N)Cc1ccc2c(c1)OCO2` [S(+)-MDA], for which, in experiment [1] (setting [3]), the neurite number entry is “did not significantly alter”, the “neurite total length (μm)” value was “did not significantly alter” and the “total number of branch points” value is recorded as “did not significantly alter”.

For `CNC(C)Cc1ccc2c(c1)OCO2` (racemic) [Racemic R,S(+/−)-MDMA, 3,4-Methylenedioxymethamphetamine], in experiment [1] (at 10 μM, Anova/Dunnett p<0.05), the neurite number entry was “significantly increased”, the “neurite total length (μm)” value is listed as “significantly increased” and the “total number of branch points” value is listed as “significantly increased”.

`CN[C@@H](C)Cc1ccc2c(c1)OCO2` [S(+)-MDMA]: in experiment [1] (setting [3]), the neurite number result is reported as “did not significantly alter”, the “neurite total length (μm)” value is “did not significantly alter” and the “total number of branch points” value is “did not significantly alter”. Besides, in experiment [2], the “average number of branchpoints per neuron” value is on record as “did not significantly induce”, the “average number of neurites per neuron” value is reported as “did not significantly induce” and the “average total neurite length per neuron” value was “did not significantly induce”.

As for `C[C@@H](N)Cc1ccc2c(c1)OCO2` [R(−)-MDA], in experiment [1] (setting [3]), the neurite number result is reported as “did not significantly alter”, the “neurite total length (μm)” value was “did not significantly alter” and the “total number of branch points” value was “did not significantly alter”.

Turning to `CN[C@H](C)Cc1ccc2c(c1)OCO2` [R(−)-MDMA, (R)-3,4-methylenedioxymethamphetamine], the neurite number result in experiment [1] (at 0.0001 μM) was “significantly increased”. Further, in experiment [1] (at 10 μM, Anova/Dunnett p<0.05), the neurite number entry was “significantly increased”, the “neurite total length (μm)” value is reported as “significantly increased” and the “total number of branch points” value was “significantly increased”. In experiment [2], the “average number of branchpoints per neuron” value is recorded as “did not have significant effects”, the “average number of neurites per neuron” value is recorded as “did not have significant effects” and the “average total neurite length per neuron” value is “significantly induced”.
